# Strand notation (5' to 3'): a small letter for the sugar, then the base; units joined by * are phosphorothioate-linked, units joined directly phosphodiester-linked; [ ] holds rarer units or linkages, { } end groups; capitals alone tell only the bases. {Chol-TEG} = cholesterol-triethylene glycol conjugate; [UNA-N] = unlocked nucleic acid (N: the base); [invdT] = inverted (3'-3') thymidine; d = 2'-deoxy (DNA); m = 2'-O-methyl; r = 2'-OH (RNA); f = 2'-fluoro
# Assays:
# Z-AAT = details: PiZ mouse model of AATD, cited from earlier work
# hAAT = test: Serum hAAT protein levels in PiZ mice (ELISA); format: in vivo, human (expressed in PiZ mice); details: for Serum hAAT normalized to day 1: PiZ mice, single IV 6 mg/kg with 6 mg/kg MLP delivery polymer; for Serum hAAT normalized to day 1 and controls: female PiZ mice, single IV 8 mg/kg + 8 mg/kg MLP delivery polymer, mice euthanized Day 29
# Description: (§1) Human AAT protein levels in serum were monitored for 29 days. At the indicated times, blood samples were collected and assayed for hAAT by ELISA. Day 1 samples were collected prior to trigger administration. For mRNA analysis, 3-4 mice were euthanized at each of days 3, 8, 15, 22, and 29. For euthanized mice, cardiac stick were performed for serum isolation for AAT ELISA (200 μl serum). Half of the left lateral liver lobe was collected and snap-freeze in liquid nitrogen for RNA isolation. The remainder of the left lobes were embedded into paraffin blocks for PAS-D staining with hematoxylin as counter-stain. Serum hAAT levels in mice given AAT Duplex Pair SEQ ID NO: 5/6 were 95% reduced on day 8 and remained reduced to day 29, at which time they were 79% reduced. Mice given AAT Duplex Pair SEQ ID NO: 5/6 were euthanized at either day 3, 8, 15, 22 or 29. Mice given saline or Luciferase siRNA control (SEQ ID 7/8) were euthanized on day 29. Levels of hAAT mRNA in the livers were measured by RT-qPCR. The hAAT mRNA in mice given AAT Duplex Pair SEQ ID NO: 5/6 was reduced by 97% on day 3 and remained reduced on day 29, at which time levels were 56% reduced. The size of the globules and the area of the liver covered by globules was digitally quantitated from liver specimens stained with PAS-D. Duplex Pair SEQ ID NO: 5/6 treated mice had 70% smaller globules at day 15 and 62% smaller globules at day 29. The area of the liver covered with globules was 83% reduced on day 15 and 72% reduced on day 29 (FIG. 5).
# hAAT mRNA = test: Liver hAAT mRNA levels in PiZ mice (RT-qPCR); format: in vivo, human (expressed in PiZ mice); details: PiZ mice liver
# Description: Compositions comprising double-stranded AAT expression-inhibiting oligomeric compounds were administered to PiZ mice. PiZ mice harbor the human PiZ AAT mutant allele and model human AATD (Carlson et al. Journal of Clinical Investigation 1989). […] Liver hAAT mRNA production was measured at days 3 and 10. Reduced mRNA levels correlated with decreased serum hAAT protein levels, except that mRNA reduction preceded protein reduction by a few days. The level of liver hAAT mRNA production was measured at day 3 and day 10 following a single dose of AAT RNAi agent with MLP delivery polymer in PiZ mice. A sustained decrease in liver hAAT mRNA levels was observed that correlated with the decrease observed in serum hAAT protein levels.
# as §1
compound,measurement,setting,value
NC(=O)N1c2ccccc2C=Cc2ccccc21 [carbamazepine],Z-AAT globules in hepatocytes and hepatic fibrosis,Z-AAT,mediate a reduction in Z-AAT globules in hepatocytes and ameliorated hepatic fibrosis
OCCN1CCN(CCCN2c3ccccc3Sc3ccc(C(F)(F)F)cc32)CC1 [fluphenazine],Z-AAT globules in hepatocytes and hepatic fibrosis,Z-AAT,mediate a reduction in Z-AAT globules in hepatocytes and ameliorated hepatic fibrosis
"C[C@H](CC(=O)O)[C@H]1CC[C@H]2[C@@H]3[C@@H](O)C[C@@H]4C[C@H](O)CC[C@]4(C)[C@H]3CC[C@]12C [nor-UDCA, nor-ursodeoxycholic acid]",apoptotic signaling and accumulation of mutant Z-AAT in hepatocytes,Z-AAT; associated with an increase in hepatic autophagy,reduced apoptotic signaling and reduced accumulation of mutant Z-AAT in hepatocytes
"Luciferase siRNA control: Luciferase double-stranded siRNA control, SEQ ID NO: 7 and Chol-TEG SEQ ID NO: 8 (chain 1 dTfCmGfAmAfG[UNA-U]fAmCfUmCfAmGfCmGfUmAfAmGdT*dT; chain 2 {Chol-TEG}-mUrAmUfCmUfUmAfCmGfCmUfGmAfGmUfAmCfUmUfCmGfA[invdT]) [reference compound]",Serum hAAT normalized to day 1,hAAT; day 1 (reference),1.00
same,Serum hAAT normalized to day 1,hAAT; day 3,1.110 ± 0.147
same,Serum hAAT normalized to day 1,hAAT; day −2 (pre-dose),0.766 ± 0.219
same,Serum hAAT normalized to day 1 and controls,hAAT; Day 1,1.000
same,Serum hAAT normalized to day 1 and controls,hAAT; Day 3,0.994 ± 0.153
same,Serum hAAT normalized to day 1 and controls,hAAT; Day 8,1.090 ± 0.092
same,Serum hAAT normalized to day 1 and controls,hAAT; Day 15,0.890 ± 0.080
same,Serum hAAT normalized to day 1 and controls,hAAT; Day 22,1.171 ± 0.095
same,Serum hAAT normalized to day 1 and controls,hAAT; Day 29,0.797 ± 0.074
same,Serum hAAT normalized to day 1 and controls,hAAT; Day −2,1.268 ± 0.143
same,Average relative mRNA level (hAAT),"hAAT mRNA; one injection 8 mg/kg + 8 mg/kg MLP delivery polymer, Day 29",1.031
same,hAAT mRNA level,"hAAT mRNA; single IV 6 mg/kg with 6 mg/kg MLP delivery polymer, relative to mouse β-actin mRNA, day 3",1.06 ± 0.20
